Source: article PMC6199744, “Development of Chemical Proteomics for the Folateome and Analysis of the Kinetoplastid Folateome” (ACS Infectious Diseases, 2018)
Where two headings read alike, the source gives them in different places.

How the values were obtained:
Assay type in all cases: binding
[1] = biological target: T1, HeLa cell extract proteins (Homo sapiens, UniProt Q9H2U1)
T1 construct: endogenous in cells; host or cells: HeLa cell extract
T1 sequence (Q9H2U1 1-1008): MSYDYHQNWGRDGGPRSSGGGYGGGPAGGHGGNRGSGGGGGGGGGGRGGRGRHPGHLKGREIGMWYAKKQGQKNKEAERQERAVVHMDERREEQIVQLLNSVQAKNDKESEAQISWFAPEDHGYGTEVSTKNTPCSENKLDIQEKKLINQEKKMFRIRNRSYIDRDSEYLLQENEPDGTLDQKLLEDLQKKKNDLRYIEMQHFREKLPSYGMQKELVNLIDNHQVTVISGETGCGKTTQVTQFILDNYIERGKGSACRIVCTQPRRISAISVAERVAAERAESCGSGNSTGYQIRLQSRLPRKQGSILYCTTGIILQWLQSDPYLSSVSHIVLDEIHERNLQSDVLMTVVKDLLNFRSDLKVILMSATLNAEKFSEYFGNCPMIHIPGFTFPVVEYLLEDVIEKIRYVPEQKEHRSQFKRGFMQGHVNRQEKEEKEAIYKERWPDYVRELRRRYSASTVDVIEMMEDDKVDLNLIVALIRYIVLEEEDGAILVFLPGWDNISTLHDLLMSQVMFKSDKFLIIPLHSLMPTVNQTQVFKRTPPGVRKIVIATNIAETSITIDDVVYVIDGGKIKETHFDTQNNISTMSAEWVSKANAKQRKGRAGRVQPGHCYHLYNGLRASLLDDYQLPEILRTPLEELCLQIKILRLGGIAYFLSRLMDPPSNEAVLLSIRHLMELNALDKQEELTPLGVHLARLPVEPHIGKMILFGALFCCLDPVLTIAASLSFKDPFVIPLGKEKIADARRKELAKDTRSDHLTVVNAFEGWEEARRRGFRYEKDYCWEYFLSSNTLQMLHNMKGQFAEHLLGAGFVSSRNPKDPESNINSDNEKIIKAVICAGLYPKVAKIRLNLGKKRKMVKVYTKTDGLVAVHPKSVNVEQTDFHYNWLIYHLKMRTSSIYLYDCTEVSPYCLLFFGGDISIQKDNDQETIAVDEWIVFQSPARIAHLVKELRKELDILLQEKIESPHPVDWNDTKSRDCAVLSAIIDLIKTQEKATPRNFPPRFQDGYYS

[2] = biological target: T2, HeLa cell extract proteins (Homo sapiens, UniProt Q5H9R7)
T2 construct: endogenous in cells; host or cells: HeLa cell extract
T2 sequence (Q5H9R7 1-873): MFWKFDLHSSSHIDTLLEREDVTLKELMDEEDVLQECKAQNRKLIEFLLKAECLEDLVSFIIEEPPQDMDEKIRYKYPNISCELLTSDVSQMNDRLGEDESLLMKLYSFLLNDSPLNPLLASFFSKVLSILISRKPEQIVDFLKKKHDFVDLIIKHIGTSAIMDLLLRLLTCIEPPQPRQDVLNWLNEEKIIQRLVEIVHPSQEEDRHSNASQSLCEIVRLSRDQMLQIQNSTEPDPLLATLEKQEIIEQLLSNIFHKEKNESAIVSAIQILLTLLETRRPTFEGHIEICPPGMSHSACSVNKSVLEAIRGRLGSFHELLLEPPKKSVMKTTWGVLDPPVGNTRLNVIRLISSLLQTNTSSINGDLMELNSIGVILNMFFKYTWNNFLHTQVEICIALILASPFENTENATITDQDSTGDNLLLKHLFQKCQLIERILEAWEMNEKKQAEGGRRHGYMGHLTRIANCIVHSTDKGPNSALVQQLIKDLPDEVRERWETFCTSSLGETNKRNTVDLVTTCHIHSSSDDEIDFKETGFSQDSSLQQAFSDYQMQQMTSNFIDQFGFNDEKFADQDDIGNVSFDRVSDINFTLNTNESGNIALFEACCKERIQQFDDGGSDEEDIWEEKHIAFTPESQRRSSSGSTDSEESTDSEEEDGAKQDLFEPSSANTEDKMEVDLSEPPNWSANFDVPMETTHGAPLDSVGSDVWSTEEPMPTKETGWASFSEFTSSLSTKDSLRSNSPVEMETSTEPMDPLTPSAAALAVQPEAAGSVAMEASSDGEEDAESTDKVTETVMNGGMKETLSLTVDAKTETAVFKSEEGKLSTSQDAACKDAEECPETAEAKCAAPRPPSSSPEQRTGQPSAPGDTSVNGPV

[3] = biological target: T3, HeLa cell extract proteins (Homo sapiens, UniProt P05387)
T3 construct: endogenous in cells; host or cells: HeLa cell extract
T3 sequence (P05387 whole entry): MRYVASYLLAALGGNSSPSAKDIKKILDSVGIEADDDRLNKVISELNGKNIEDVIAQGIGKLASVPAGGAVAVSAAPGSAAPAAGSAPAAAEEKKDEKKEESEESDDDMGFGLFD

[4] = biological target: T4, HeLa cell extract proteins (Homo sapiens, UniProt P25705)
T4 construct: endogenous in cells; host or cells: HeLa cell extract
T4 sequence (P25705 44-553): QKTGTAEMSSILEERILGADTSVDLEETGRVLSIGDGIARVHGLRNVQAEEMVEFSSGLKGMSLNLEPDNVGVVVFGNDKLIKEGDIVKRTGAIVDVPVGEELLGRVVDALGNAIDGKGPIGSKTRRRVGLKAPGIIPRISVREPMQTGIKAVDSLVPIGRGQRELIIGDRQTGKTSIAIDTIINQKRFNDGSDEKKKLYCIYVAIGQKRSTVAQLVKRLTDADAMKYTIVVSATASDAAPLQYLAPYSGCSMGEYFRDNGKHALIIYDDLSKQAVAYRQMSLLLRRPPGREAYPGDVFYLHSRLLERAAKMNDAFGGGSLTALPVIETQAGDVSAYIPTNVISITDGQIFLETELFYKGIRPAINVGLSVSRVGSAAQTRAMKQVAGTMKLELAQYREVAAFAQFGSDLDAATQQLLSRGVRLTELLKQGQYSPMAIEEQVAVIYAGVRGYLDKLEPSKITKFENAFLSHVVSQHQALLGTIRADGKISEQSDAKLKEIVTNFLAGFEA

[5] = biological target: T5, HeLa cell extract proteins (Homo sapiens, UniProt O43175)
T5 construct: endogenous in cells; host or cells: HeLa cell extract
T5 sequence (O43175 1-533): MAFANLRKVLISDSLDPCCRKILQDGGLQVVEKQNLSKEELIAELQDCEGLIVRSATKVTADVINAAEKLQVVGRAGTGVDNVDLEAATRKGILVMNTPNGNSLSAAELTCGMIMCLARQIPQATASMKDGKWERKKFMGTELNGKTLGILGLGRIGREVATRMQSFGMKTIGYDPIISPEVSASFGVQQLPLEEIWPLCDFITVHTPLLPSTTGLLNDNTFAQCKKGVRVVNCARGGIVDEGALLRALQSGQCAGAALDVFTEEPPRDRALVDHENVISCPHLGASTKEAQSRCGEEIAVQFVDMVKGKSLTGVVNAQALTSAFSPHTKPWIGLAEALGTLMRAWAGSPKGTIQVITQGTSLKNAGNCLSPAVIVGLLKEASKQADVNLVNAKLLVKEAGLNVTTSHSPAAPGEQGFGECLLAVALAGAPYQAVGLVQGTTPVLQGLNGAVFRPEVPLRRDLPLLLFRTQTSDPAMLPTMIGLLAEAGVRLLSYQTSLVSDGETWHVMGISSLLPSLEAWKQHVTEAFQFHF

[6] = HeLa, protein DHX36 (ISOFORM 1 OF PROBABLE ATP-DEPENDENT RNA HELICASE DHX36)

Structure (SMILES)	fold changes relative to vehicle control ([1]; protein DHX36, HeLa)	fold changes relative to vehicle control ([2]; HeLa, protein SAPS3)	fold changes relative to vehicle control ([3]; protein RPLP2, HeLa)	fold changes relative to vehicle control ([4]; HeLa, protein ATP5A1)	fold changes relative to vehicle control ([5]; protein PHGDH, HeLa)	fold changes relative to vehicle control [1, 6]	fold changes relative to vehicle control ([4]; HeLa, captured protein ATP5A1)	fold changes relative to vehicle control [1]	fold changes relative to vehicle control [2]	fold changes relative to vehicle control [3]	fold changes relative to vehicle control [4]	fold changes relative to vehicle control [5]
CCCCCCOc1cccc(Cc2cnc(N)nc2N)c1 [compound 2]	0.91	1.09	1.65	0.97	1.25	–	–	–	–	–	–	–
NCCOCCOCC(=O)Nc1nc2ncc(CNc3ccc(C(=O)NC(CCC(=O)O)C(=O)O)cc3)nc2c(=O)[nH]1 (centres unmarked) [compound 6]	–	0.88	1.04	–	1.06	1.07	0.95	–	–	–	–	–
CCCCCCOc1ccc(Cc2cnc(N)nc2N)cc1 [compound 1]	1.17	0.96	0.76	1	0.99	–	–	–	–	–	–	–
Nc1nc2c(c(=O)[nH]1)N(C=O)C(CNc1ccc(C(=O)N[C@@H](CCC(=O)O)C(=O)O)cc1)CN2 (some centres unmarked) [LEU, leucovorin]	–	0.94	0.82	–	0.88	1.12	0.99	–	–	–	–	–
NCCCNc1ccc(C(=O)NC(CCC(=O)O)C(=O)O)cc1 (centres unmarked) [compound 7]	–	0.93	0.82	–	1.06	1.03	0.99	–	–	–	–	–
Nc1nc2[nH]cc(CCc3ccc(C(=O)N[C@@H](CCC(=O)O)C(=O)O)cc3)c2c(=O)[nH]1 [PTX, pemetrexed]	–	–	–	–	–	–	–	0.99	0.94	0.94	0.94	0.93
Nc1nc2cccc(-c3ccccc3)c2n1Cc1ccc(Cl)c(Cl)c1 [compound 3]	0.98	1.11	0.81	0.87	1.5	–	–	–	–	–	–	–
